Literature values, collected in publication PMC9653173, “Trotabresib (CC-90010) in combination with adjuvant temozolomide or concomitant temozolomide plus radiotherapy in patients with newly diagnosed glioblastoma” (Neuro-Oncology Advances, 2022).

How the values were obtained:
MYC = settings: in vitro; cited from earlier work
breast cancer cells = system: breast cancer cells; design: method as in PMID 32848091; settings: cited from earlier work

Structure (SMILES)	MYC expression (MYC)	Expression of the HER2-regulated gene TUBB3 (breast cancer cells)	Sensitivity to vinorelbine (breast cancer cells; in vitro and in PDX models)
Cc1sc2c(c1C)C(c1ccc(Cl)cc1)=N[C@@H](CC(=O)OC(C)(C)C)c1nnc(C)n1-2 [JQ1, reference compound]	downregulated in vitro		
CCNC(=O)C[C@@H]1N=C(c2ccc(Cl)cc2)c2cc(OC)ccc2-n2c(C)nnc21 [iBET-762]		upregulated expression	increased sensitivity to vinorelbine
